Laboratory results as given in patent publication US5932548A, “Lysine containing peptides for treatment of heart disease” (priority 1998, dated 1999).
Non-standard residues stand in square brackets, D forms with d. Residues, ends and D or L forms follow the SMILES beside them. dTrp(2-Me) = Cc1[nH]c2ccccc2c1C[C@@H](N)C(=O)O

Key:
isolated rat hearts = experiment: coronary perfusion pressure (CPP) in isolated rat hearts; conditions: versus saline treatment (no peptide)
Description: (§1) In the examples that follow, data is presented for the most preferred lysine containing peptides of the invention. The GH releasing effect was measured in rats according to the method described by R. Deghenghi et al., Life Sci. 54: 1321-1328 (1994). The cardiac protection of the instant peptides has been measured essentially as described in the above cited publication by V. De Gennaro Colonna et al., Europ. J. Pharmacol. 334:201-207 (1997).
The effects on coronary perfusion pressure ("CPP") in isolated rat hearts have been measured using Hexarelin (His-D-Mrp-Ala-Trp-D-Phe-Lys-NH2) as reference compound and compared to that for the GH antagonist His-D-Mrp-D-Lys-Trp-D-Phe-Lys-NH2. An increase of CPP over a saline treatment (i.e., no peptide) of 110±10% was found for Hexarelin, but an increase of 160±25% was found for the antagonist.

[1] = tested on: growth hormone deficient rats; conditions: De Gennaro Colonna et al. 1997; cited from earlier work
rats = experiment: GH releasing effect in rats; format: in vivo, rat
Description: as §1

Row | Compound | increase of CPP over a saline treatment (isolated rat hearts) [%] | effect on cardiac dysfunction [1] | GH liberation (rats)
1 | Cc1[nH]c2ccccc2c1C[C@@H](NC(=O)[C@@H](N)Cc1cnc[nH]1)C(=O)N[C@@H](C)C(=O)N[C@@H](Cc1c[nH]c2ccccc12)C(=O)N[C@H](Cc1ccccc1)C(=O)N[C@@H](CCCCN)C(N)=O [Hexarelin, His-D-Mrp-Ala-Trp-D-Phe-Lys-NH2] (H-H[dTrp(2-Me)]AW[dF]K-NH2) | 110±10 | reverse the worsening of cardiac dysfunction | –
2 | His-D-Mrp-D-Lys-Trp-D-Phe-Lys-NH2 | 160±25 | – | does not liberate GH
